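Cells were grown in 96-well plates and exposed to each compound for 48 hours at five concentrations; endpoints were interpolated linearly between bracketing concentrations, or set to the highest concentration if not reached. GI50 is the concentration that inhibits growth by half.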 Active and inactive are the calls of the source. Rule as the data show it: active = GI50 up to about 1.1 µM and inactive = higher.
Legend:
Test in all cases: growth of human tumour cells (NCI), 48 h
OVCAR-5 = tested on: OVCAR-5
LOX IMVI = tested on: LOX IMVI
CCRF-CEM = tested on: CCRF-CEM
SNB-75 = tested on: SNB-75
KM12 = tested on: KM12
OVCAR-4 = tested on: OVCAR-4
ACHN = tested on: ACHN
IGROV-1 = tested on: IGROV-1
SK-MEL-28 = tested on: SK-MEL-28
RPMI-8226 = tested on: RPMI-8226
UACC-257 = tested on: UACC-257
SF-268 = tested on: SF-268
U-251 = tested on: U-251
MOLT-4 = tested on: MOLT-4
M14 = tested on: M14
SK-MEL-5 = tested on: SK-MEL-5
SF-539 = tested on: SF-539
SF-295 = tested on: SF-295
MCF7 = tested on: MCF7
BT-549 = tested on: BT-549

| Compound | GI50 (OVCAR-5) | GI50 (LOX IMVI) | GI50 (CCRF-CEM) | GI50 (SNB-75) | GI50 (KM12) | GI50 (OVCAR-4) | GI50 (ACHN) | GI50 (IGROV-1) | GI50 (SK-MEL-28) | GI50 (RPMI-8226) | GI50 (UACC-257) | GI50 (SF-268) | GI50 (U-251) | GI50 (MOLT-4) | GI50 (M14) | GI50 (SK-MEL-5) | GI50 (SF-539) | GI50 (SF-295) | GI50 (MCF7) | GI50 (BT-549) |
| --- | --- | --- | --- | --- | --- | --- | --- | --- | --- | --- | --- | --- | --- | --- | --- | --- | --- | --- | --- | --- |
| CC1=CCC(O)C=CC(C)C(O)C(C)C=C(C)C(=O)c2c(O)c(C)cc3c2C(=O)C(N)=C(NC(=O)/C=C\C=C/C=CC(C)C(O)CC1=O)C3=O (centres undefined) | > 100 µM (inactive) | > 100 µM (inactive) | 67.6 µM (inactive) | > 100 µM (inactive) | > 100 µM (inactive) | > 100 µM (inactive) | > 100 µM (inactive) | > 100 µM (inactive) | > 100 µM (inactive) | > 100 µM (inactive) | > 100 µM (inactive) | > 100 µM (inactive) | > 100 µM (inactive) | 63.7 µM (inactive) | > 100 µM (inactive) | > 100 µM (inactive) | > 100 µM (inactive) | > 100 µM (inactive) |  |  |
| C[Si](C)(C)CCOCN(C(=O)C1=CCC2(CC1)OCCO2)c1ccccc1I | 20 µM (inactive) | 29 µM (inactive) | 25.4 µM (inactive) | 17.7 µM (inactive) | 18.7 µM (inactive) | 21.1 µM (inactive) | 22.6 µM (inactive) | 24.6 µM (inactive) | 19.4 µM (inactive) | 11.9 µM (inactive) | 20.9 µM (inactive) | 21.8 µM (inactive) | 24.9 µM (inactive) | 10.8 µM (inactive) | 18.2 µM (inactive) | 11.3 µM (inactive) | 22.1 µM (inactive) | 15.5 µM (inactive) | 14.2 µM (inactive) |  |
| CSC1=N/C(=C\c2ccc(Cl)cc2)C(=O)N1CN1CCOCC1 | 87.9 µM (inactive) | 26.4 µM (inactive) | 30.8 µM (inactive) | 55.2 µM (inactive) | 85.7 µM (inactive) | 21 µM (inactive) | 31.3 µM (inactive) | 27.4 µM (inactive) | > 100 µM (inactive) | 19.3 µM (inactive) |  | 18.2 µM (inactive) | 27 µM (inactive) | 40 µM (inactive) | 39 µM (inactive) | 32.6 µM (inactive) |  | > 100 µM (inactive) | 5.75 µM (inactive) |  |
| ON=C(CC(O)(C(F)(F)Cl)C(F)(F)Cl)CC(O)(C(F)(F)Cl)C(F)(F)Cl |  | 5.26 µM (inactive) | 5.56 µM (inactive) | 6.61 µM (inactive) | 8.38 µM (inactive) | 4.92 µM (inactive) | 3.66 µM (inactive) | 6.37 µM (inactive) | 6.27 µM (inactive) | 2.7 µM (inactive) | 4.38 µM (inactive) | 3.55 µM (inactive) | 3.46 µM (inactive) | 4.83 µM (inactive) |  | 4.2 µM (inactive) | 2.07 µM (inactive) | 7.89 µM (inactive) | 3.87 µM (inactive) |  |
| CC(C)(/C=N/O)/[N+]([O-])=C/c1ccccc1 | > 100 µM (inactive) | > 100 µM (inactive) |  | > 100 µM (inactive) | > 100 µM (inactive) | > 100 µM (inactive) | > 100 µM (inactive) | > 100 µM (inactive) | > 100 µM (inactive) | > 100 µM (inactive) | > 100 µM (inactive) | > 100 µM (inactive) | > 100 µM (inactive) | > 100 µM (inactive) | > 100 µM (inactive) | > 100 µM (inactive) | > 100 µM (inactive) | > 100 µM (inactive) | > 100 µM (inactive) |  |
| COc1c(C)cc(O)cc1C=O | > 100 µM (inactive) | > 100 µM (inactive) | > 100 µM (inactive) | > 100 µM (inactive) | 93.3 µM (inactive) | > 100 µM (inactive) | > 100 µM (inactive) | > 100 µM (inactive) | > 100 µM (inactive) | > 100 µM (inactive) | > 100 µM (inactive) | > 100 µM (inactive) | > 100 µM (inactive) | > 100 µM (inactive) | > 100 µM (inactive) | > 100 µM (inactive) | > 100 µM (inactive) | > 100 µM (inactive) |  |  |
| O=C(/C=C(\O)C(=O)O)/C=C(\O)c1ccc(Cl)cc1 | > 100 µM (inactive) | > 100 µM (inactive) | > 100 µM (inactive) | > 100 µM (inactive) | > 100 µM (inactive) | > 100 µM (inactive) | > 100 µM (inactive) | > 100 µM (inactive) | > 100 µM (inactive) | > 100 µM (inactive) | > 100 µM (inactive) | > 100 µM (inactive) | > 100 µM (inactive) | > 100 µM (inactive) | > 100 µM (inactive) | > 100 µM (inactive) | > 100 µM (inactive) | > 100 µM (inactive) |  |  |
| CCN(CC)C(=O)CNC(=O)OC(C)(C)C | > 100 µM (inactive) | > 100 µM (inactive) | > 100 µM (inactive) | > 100 µM (inactive) | > 100 µM (inactive) | > 100 µM (inactive) | > 100 µM (inactive) | > 100 µM (inactive) | > 100 µM (inactive) | > 100 µM (inactive) | > 100 µM (inactive) | > 100 µM (inactive) | > 100 µM (inactive) | > 100 µM (inactive) | > 100 µM (inactive) | > 100 µM (inactive) | > 100 µM (inactive) | > 100 µM (inactive) |  |  |
| CC1(C)C=C(/C=N/Nc2ccc(Br)cc2)C(C#N)=C(O)C1(C#N)C#N | > 100 µM (inactive) | 64.6 µM (inactive) | 35.8 µM (inactive) | 66.4 µM (inactive) | 29.9 µM (inactive) | 40 µM (inactive) | 33.3 µM (inactive) | 81.8 µM (inactive) | 81.8 µM (inactive) | 38.5 µM (inactive) | 31.8 µM (inactive) | 40.9 µM (inactive) |  | 29.2 µM (inactive) | 26.6 µM (inactive) | > 100 µM (inactive) | 55.2 µM (inactive) | > 100 µM (inactive) | 26.5 µM (inactive) |  |
| O=CN(CCN1CCCC1)C1CCc2cc(Cl)c(Cl)cc2C1 (centres undefined) | 17.4 µM (inactive) | 14 µM (inactive) | 22.5 µM (inactive) |  | 4.5 µM (inactive) | 18.7 µM (inactive) |  | 22.1 µM (inactive) |  | 20.6 µM (inactive) | 15.2 µM (inactive) | 18.5 µM (inactive) | 0.513 µM (active) | 24.4 µM (inactive) | 15.9 µM (inactive) | 27.2 µM (inactive) | 30.5 µM (inactive) | 0.166 µM (active) |  | 14.1 µM (inactive) |
| O=C1c2c(O)cccc2C(C(=O)CCCCCC(=O)C2c3cccc(O)c3C(=O)c3c(O)cccc32)c2cccc(O)c21 | 3.22 µM (inactive) | 0.906 µM (active) | 1.36 µM (inactive) | 1.03 µM (active) | 1.07 µM (active) | 1.5 µM (inactive) | 2.72 µM (inactive) | 1.14 µM (inactive) | 0.804 µM (active) | 0.741 µM (active) | 0.755 µM (active) | 1.04 µM (active) | 0.766 µM (active) | 9.53 µM (inactive) | 2.45 µM (inactive) | 0.555 µM (active) | 0.537 µM (active) | 1.14 µM (inactive) |  |  |
| O=[N+]([O-])c1ccc(Sc2c3ccccc3nc3ccccc23)cc1 | > 100 µM (inactive) | > 100 µM (inactive) | > 100 µM (inactive) | > 100 µM (inactive) | > 100 µM (inactive) | > 100 µM (inactive) | > 100 µM (inactive) | > 100 µM (inactive) | > 100 µM (inactive) | > 100 µM (inactive) | > 100 µM (inactive) | > 100 µM (inactive) | > 100 µM (inactive) | > 100 µM (inactive) | > 100 µM (inactive) | > 100 µM (inactive) | > 100 µM (inactive) | > 100 µM (inactive) |  |  |
| CC(=O)c1cccc(NC(=O)C(=O)Nn2c(N)nnc2N)c1 | > 100 µM (inactive) | > 100 µM (inactive) | > 100 µM (inactive) | > 100 µM (inactive) | > 100 µM (inactive) | > 100 µM (inactive) | > 100 µM (inactive) | > 100 µM (inactive) | > 100 µM (inactive) | > 100 µM (inactive) | > 100 µM (inactive) | > 100 µM (inactive) | > 100 µM (inactive) | > 100 µM (inactive) | > 100 µM (inactive) | > 100 µM (inactive) | > 100 µM (inactive) | > 100 µM (inactive) |  |  |
| COc1cccc(C(=O)Oc2ccc(OS(=O)(=O)c3ccc(C)cc3)cc2)c1C#N | > 100 µM (inactive) | > 100 µM (inactive) | 47.5 µM (inactive) | > 100 µM (inactive) | 61.1 µM (inactive) | 52.5 µM (inactive) | 94 µM (inactive) | 29 µM (inactive) | > 100 µM (inactive) | 36.8 µM (inactive) | 28.6 µM (inactive) | > 100 µM (inactive) | > 100 µM (inactive) | 35.7 µM (inactive) | 47.9 µM (inactive) | 11.4 µM (inactive) | > 100 µM (inactive) | 55.6 µM (inactive) | 49.7 µM (inactive) |  |
| CC[C@H](CC[C@@H](C)[C@H]1CC[C@H]2[C@@H]3CC=C4C[C@@H](O)CC[C@]4(C)[C@H]3CC[C@]12C)C(C)C [BETA-SITOSTEROL] | > 100 µM (inactive) | > 100 µM (inactive) | > 100 µM (inactive) | > 100 µM (inactive) | > 100 µM (inactive) | > 100 µM (inactive) | > 100 µM (inactive) | > 100 µM (inactive) | > 100 µM (inactive) | > 100 µM (inactive) | > 100 µM (inactive) | > 100 µM (inactive) | > 100 µM (inactive) | > 100 µM (inactive) | > 100 µM (inactive) | > 100 µM (inactive) | > 100 µM (inactive) | > 100 µM (inactive) | > 100 µM (inactive) |  |

— ChEMBL document CHEMBL1201862, “PubChem BioAssay data set” (2004)
